The text below walks through data of US10653667B2, “Drug for preventing, treating or preventing metastasis of giant cell tumor that occurs in bone or soft parts, chondrosarcoma, or osteosarcoma, local injection for arterial embolization, and artificial bone” (NIPPON CHEMIPHAR CO., LTD, priority 2013, dated 2020).

Test [1] deals with GCTB cultured cells of the case 1. Briefly: Tunel assay and caspase 3 staining of GCTB cultured cells (apoptosis). Type of test: cell-based, human. Particulars: zaltoprofen 100 and 200 μM; 8 hours and 24 hours. The protocol: Further, the aforementioned GCTB cultured cells of the case 1 mentioned above were cultured on chamber cover slide glass, and zaltoprofen was added at different concentrations (100, and 200 μM) 24 hours afterward. Then, 8 hours and 24 hours afterward, the cells were fixed with 4% paraformaldehyde, staining with caspase 3 and Tunel assay were performed, and presence or absence of apoptosis was analyzed. In the Tunel assay, fragmented DNAs produced in the process of apoptosis were detected by the TdT-mediated dUTP nick end labeling method (TUNEL). Observation was performed with a fluorescence microscope (BZ-9000) of Keyence, and positive images for each concentration were quantitatively observed (FIGS. 2 to 5).

In test [2] the test system is giant cell tumor of bone (GCTB). The note with it: patient who had taken zaltoprofen for four weeks at 240 mg per day; inventors' earlier reports; cited from earlier work.
Test [3] relates to GCTB cultured cells (case 1, case 2). Briefly: Cell proliferation of GCTB cultured cells in the presence or absence of PPARγ siRNA. In kind it is cell-based, human. The note with it: 200 μM zaltoprofen or 60 μM troglitazone; 72 hours.
Test [4] concerns synovial cells derived from rheumatism patients. Particulars: cited from earlier work.
Test [5] deals with PPARγ expression in H-EMC-SS cells. The note with it: inventors' earlier reports; cited from earlier work.
The subject of test [6] is PPARγ expression in GCTB cultured cells. Description: PPARγ immunostaining of GCTB cultured cells. In kind it is cell-based, human. Particulars: zaltoprofen 10, 50, 100, 200 μM; 24 hours; about 15% in the control. As to the method: The GCTB cultured cells of the aforementioned case 1 were cultured on chamber cover slide glass, and 24 hours thereafter, zaltoprofen was added at various concentrations (10, 50, 100, and 200 μM). After 24 hours, the cells were fixed with 4% paraformaldehyde, and immunohistochemical staining of PPARγ was performed. The PPARγ protein was fluorescently detected by using the antibody SC-7273 of Santa Cruz Biotechnology, Inc. as the primary antibody and the rat anti-mouse IgG FITC (11-4011-85) of eBioscience as the secondary antibody. Observation was performed with a fluorescence microscope (BZ-9000) of Keyence, and positive images for each concentration were quantitatively observed (FIGS. 6 and 7).

Test [7] relates to PPARγ expression in giant cell tumor of bone (GCTB). Description: PPARγ staining of operational excision sample of GCTB patient administered with zaltoprofen. Type of test: in vivo, human. Particulars: 3 tablets per day Soleton Tablet 80 for about 28 days. The protocol: An operational excision sample of a person who had been administered with 3 tablets per day of the zaltoprofen tablets, Soleton Tablet 80 (generic name: zaltoprofen, 80 mg, Nippon Chemiphar) for about 28 days for pain due to the tumor, and then subjected to the operation, and an operational excision sample of giant cell tumor of bone excised from a patient with giant cell tumor of bone not administered with zaltoprofen (case in which tumor was excised by usual surgical operation according to standard therapy) as a control were subjected to staining of PPARγ, and expression of PPARγ was analyzed by PCR. For PCR, Hs_PPARG_1_SGQuantiTect Primer Assay (200) (QT00029841) of QIAGEN was used. Observation was performed with a fluorescence microscope (BZ-9000) of Keyence (FIG. 11).

Take `CC(C(=O)O)c1ccc2c(c1)CC(=O)c1ccccc1S2` (centres unmarked) [zaltoprofen]: in test [1], the Tunel-positive ratio entry was “concentration and administration time-dependent increases”; the “caspase 3-positive ratio” value was “concentration and administration time-dependent increases”. Also, the “giant cell tumor of bone in patient” value in test [2] is on record as “giant cell tumor of bone disappeared”. For the same compound, in test [3], the “cell proliferation-inhibiting effect in the PPARγ siRNA addition group” value is “significantly suppressed”. In test [4], the “activation of PPARγ” value is listed as “activated PPARγ”, the apoptosis result is reported as “caused apoptosis” and the “suppression of proliferation of the cells” value was “suppress proliferation”. Also, the “expression of PPARγ in H-EMC-SS cells” value in test [5] was “promoted expression of PPARγ”. Further, in test [6], the “expression of PPARγ (ratio of PPARγ-positive cells)” value was “increased in a zaltoprofen concentration-dependent manner”. In addition, the “fat cell differentiation in excision sample” value in test [7] is “fat cell differentiation could be confirmed”. For the same compound, the “PPARγ-expressing cells in excision sample” value in test [7] (vs patient not administered) was “PPARγ-expressing cells could be confirmed”.
